Data published in PubChem BioAssay (NCI).
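Cells were grown in 96-well plates and exposed to each compound for 48 hours at five concentrations; endpoints were interpolated linearly between bracketing concentrations, or set to the highest concentration if not reached. TGI denotes the concentration required for complete inhibition of growth.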

Assays:
Experiment in all cases: NCI tumour cell line growth inhibition, 48 h
DLD-1 colon = tested on: DLD-1 colon
DMS 114 small cell lung = tested on: DMS 114 small cell lung
DMS 273 small cell lung = tested on: DMS 273 small cell lung
HOP-18 NSCLC = tested on: HOP-18 NSCLC
KM20L2 colon = tested on: KM20L2 colon
M19-MEL melanoma = tested on: M19-MEL melanoma
MCF7 breast = tested on: MCF7 breast
P388 leukemia = tested on: P388 leukemia
P388/ADR leukemia = tested on: P388/ADR leukemia
SK-MEL-28 melanoma = tested on: SK-MEL-28 melanoma
SK-MEL-5 melanoma = tested on: SK-MEL-5 melanoma
SN12K1 renal = tested on: SN12K1 renal
SNB-78 CNS = tested on: SNB-78 CNS
UACC-257 melanoma = tested on: UACC-257 melanoma
XF 498 CNS = tested on: XF 498 CNS
LXFL 529 NSCLC = tested on: LXFL 529 NSCLC

Structure (SMILES)	TGI (DLD-1 colon)	TGI (DMS 114 small cell lung)	TGI (DMS 273 small cell lung)	TGI (HOP-18 NSCLC)	TGI (KM20L2 colon)	TGI (M19-MEL melanoma)	TGI (MCF7 breast)	TGI (P388 leukemia)	TGI (P388/ADR leukemia)	TGI (SK-MEL-28 melanoma)	TGI (SK-MEL-5 melanoma)	TGI (SN12K1 renal)	TGI (SNB-78 CNS)	TGI (UACC-257 melanoma)	TGI (XF 498 CNS)	TGI (LXFL 529 NSCLC)
CNC=O	> 10000 µM	> 10000 µM	> 10000 µM	> 10000 µM	> 10000 µM	> 10000 µM	> 10000 µM	> 5620 µM	> 10000 µM	> 10000 µM	> 10000 µM	> 10000 µM	> 10000 µM	> 10000 µM	> 10000 µM	–
CC(=O)/C=C/c1c[nH]c(=O)[nH]c1=O	790 µM	585 µM	324 µM	–	508 µM	771 µM	516 µM	718 µM	893 µM	504 µM	574 µM	341 µM	756 µM	641 µM	151 µM	–
O=C(c1ccc(Cl)cc1)N(C(=S)N1CCN(c2ccccc2)CC1)c1ccccc1	> 100 µM	–	> 100 µM	> 100 µM	> 100 µM	> 100 µM	–	–	–	> 100 µM	> 100 µM	–	> 100 µM	> 100 µM	–	> 100 µM
